From patent publication US4725621A, “CL-1957E antibiotic compound and its production” (priority 1986, dated 1988) come the findings set out here.

≈ marks a conversion by molar mass, not a printed value. Structures can show the parent of a compound that is named as a salt.

The test system of data set [1] is L1210 mouse leukemia cells. The data set is described as follows: in vitro cytotoxicity against L1210 mouse leukemia cells. The class given is cell-based. To be noted: read-out: ID50 (cytotoxicity). How it is done:
(§1) The cytotoxicity of CL-1957E against L1210 mouse leukemia cells and against human colon adenocarcinoma (HCT 8) cells was measured in vitro. The ID50 values appear in Table 8.

A further data set relates to Rhodotorula aurantiaca. The data set is described as follows: antimicrobial activity, broth microdilution (yeast extract-peptone-dextrose broth). The following applies: Buckleyzyma aurantiaca; culture number M1508; read-out: Minimal Inhibitory Concentration (MIC). Type of data set: cell-based. How it is done: (§2) The antimicrobial activity of CL-1957E was evaluated using the broth microdilution method. Serial dilutions of CL-1957E were made in Muellar-Hinton broth for bacteria and in yeast extract-peptone-dextrose broth for the fungi.
For orientation: Dilution methods test growth across graded concentrations, often in twofold steps.

The subject of a further data set is Mucor parasiticus. The description is as above. Type of data set: cell-based. The following applies: culture number M2652, read-out: Minimal Inhibitory Concentration (MIC). As for the experimental part:
as §2

The next data set deals with Rhizopus japonicus. The data set is described as above. To be noted: culture number M1557, read-out: Minimal Inhibitory Concentration (MIC). Type of data set: cell-based. How it is done: as §2
The test system of another data set is Torulopsis albida. The description is as above. The class given is cell-based. To be noted: Naganishia albida; culture number M1390; read-out: Minimal Inhibitory Concentration (MIC). How it is done:
as §2

In data set [2] the test system is Schizosaccharomyces pombe. Described as above. Type of data set: cell-based. To be noted: culture number M1388, read-out: Minimal Inhibitory Concentration (MIC). How it is done:
as §2

Another data set concerns Saccharomyces cerevisiae. Described as above. The following applies: culture number S288, read-out: Minimal Inhibitory Concentration (MIC). Type of data set: cell-based. How it is done: as §2
In data set [3] the test system is human colon adenocarcinoma (HCT 8) cells. Kind of data set: in vitro cytotoxicity against human colon adenocarcinoma (HCT 8) cells. The class given is cell-based. To be noted: read-out: ID50 (cytotoxicity). As for the experimental part: as §1
The next data set concerns P388 leukemia. The data set is described as follows: in vivo activity against P388 leukemia in mice. The following applies: Days 1-5, P388 inoculated intraperitoneally Day 0. How it is done:
The in vivo activity of CL-1957E against P388 leukemia in mice was assayed using the protocol established in Cancer Chemotherapy Reports, Vol. 3, Part 3, 1-87 (1972). The results of these tests are presented in Table 7 in terms of %T/C values which are the ratios of mean survival times of treated to control animals, expressed as percentages.

The subject of another data set is Streptococcus pyogenes. The data set is described as follows: antimicrobial activity, broth microdilution (Mueller-Hinton broth). The class given is cell-based. The following applies: culture number C203, read-out: Minimal Inhibitory Concentration (MIC). How it is done:
as §2

A further data set deals with Bacillus cereus. Described as above. The class given is cell-based. To be noted: culture number 04810, read-out: Minimal Inhibitory Concentration (MIC). As for the experimental part:
as §2

The next data set has as its system Alcaligenes viscolactis. Described as above. Type of data set: cell-based. To be noted: culture number 21698, read-out: Minimal Inhibitory Concentration (MIC). As for the experimental part:
as §2

Another data set deals with Pseudomonas aeruginosa. The description is as above. The class given is cell-based. The following applies: culture number 05111, read-out: Minimal Inhibitory Concentration (MIC). How it is done:
as §2

The test system of another data set is Staphylococcus aureus. The description is as above. Type of data set: cell-based. To be noted: culture number 02482, read-out: Minimal Inhibitory Concentration (MIC). As for the experimental part: as §2
The subject of a further data set is Streptococcus pneumoniae. The description is as above. The class given is cell-based. To be noted: culture number SV1, read-out: Minimal Inhibitory Concentration (MIC). As for the experimental part:
as §2

The next data set has as its system Bacillus megaterium. Described as above. The class given is cell-based. The following applies: Priestia megaterium; culture number 066; read-out: Minimal Inhibitory Concentration (MIC). How it is done:
as §2

A further data set deals with Escherichia coli. The data set is described as above. Type of data set: cell-based. The following applies: culture number 04863, read-out: Minimal Inhibitory Concentration (MIC). How it is done:
as §2

Another data set relates to Salmonella typhimurium. The data set is described as above. The class given is cell-based. To be noted: Salmonella enterica, culture number TA1535, read-out: Minimal Inhibitory Concentration (MIC). As for the experimental part:
as §2

The next data set deals with Streptococcus faecalis. Described as above. Type of data set: cell-based. To be noted: Enterococcus faecalis; culture number 05045; read-out: Minimal Inhibitory Concentration (MIC). As for the experimental part: as §2
In another data set the test system is Micrococcus luteus. Described as above. Type of data set: cell-based. The following applies: culture number 05064, read-out: Minimal Inhibitory Concentration (MIC). As for the experimental part: as §2
In the next data set the test system is Branhamella catarrhalis. Described as above. Type of data set: cell-based. To be noted: Moraxella catarrhalis; culture number 03596; read-out: Minimal Inhibitory Concentration (MIC). As for the experimental part: as §2
A further data set is described as follows: solubility in water. The class given is physicochemical. To be noted: lyophilized triethylammonium salt. How it is done:
A cooled solution of triethylamine (2.45 ml, 0.176 mmol) in 7.55 ml of water is added dropwise with stirring to a solution of 100 mg (0.176 mmol) of CL-1957E in 2.5 ml of methanol. The resulting solution is concentrated to a final volume of about 2 ml on a rotary evaporator and then diluted to 40 ml with water. Two-milliliter aliquots of this solution were added to each of several 6-ml vials.

For the molecule `CC(/C=C/C1OC(=O)C=CC1C)=C\C(C)C/C=C/C(C)=C/C(CO)C(=O)C(C)C(O)C(C)C/C(C)=C/C(=O)O` (stereo not shown) [CL-1957E, 19-(3,6-dihydro-3-methyl-6-oxo-2H-pyran-2-yl)-6-hydroxy-9-(hydroxymethyl)-3,5,7,11,15,17-hexamethyl-8-oxo-2,10,12,16,18-nonadecapentaenoic acid], the IC50 came out at 0.0034 µg/mL (≈ 0.00626 µM) in data set [1] and 0.001 µg/mL (≈ 0.00184 µM) in data set [3]. For the same molecule, the MIC was above 1000 µg/mL in the data set on Rhodotorula aurantiaca; above 1000 µg/mL in the data set with Mucor parasiticus; above 1000 µg/mL in the data set with Rhizopus japonicus; above 1000 µg/mL with Torulopsis albida; 12.3 µg/mL (≈ 22.7 µM) in data set [2]; above 1000 µg/mL in the data set on Saccharomyces cerevisiae. In addition, the MIC is at most 0.46 µg/mL with Streptococcus pyogenes; at most 0.46 µg/mL in the data set with Bacillus cereus; at most 0.46 µg/mL in the data set with Alcaligenes viscolactis; above 1000 µg/mL in the data set with Pseudomonas aeruginosa; at most 0.46 µg/mL in the data set on Staphylococcus aureus; at most 0.46 µg/mL with Streptococcus pneumoniae. The MIC with Bacillus megaterium was at most 0.46 µg/mL; in the data set with Escherichia coli it was above 1000 µg/mL; in the data set with Salmonella typhimurium, above 1000 µg/mL; with Streptococcus faecalis, at most 0.46 µg/mL; in the data set with Micrococcus luteus, at most 0.46 µg/mL; with Branhamella catarrhalis it was at most 0.46 µg/mL. The “% T/C (ratio of mean survival times of treated to control animals)” value is 130% in the data set on P388 leukemia (25 μg/kg/injection), 139% in the data set on P388 leukemia (50 μg/kg/injection) and 153% in the data set with P388 leukemia (100 μg/kg/injection). In the data set with P388 leukemia (200 μg/kg/injection), the “% T/C (entry in words: toxicity)” value was “Toxic”.

On to `CC(/C=C/C1OC(=O)C=CC1C)=C\C(C)C/C=C/C(C)=C/C(CO)C(=O)C(C)C(O)C(C)C/C(C)=C/C(=O)O` (stereo not shown) [CL-1957E triethylammonium salt], for which the solubility in water entry in “solubility in water” is given as “soluble in water”.
